# From patent US12070458B2, “Therapeutic agent composition and method of use, for treatment of mild congnitive impairment, depression, and psychological disorders” (priority 2018, dated 2024)
# Entries after “also recorded” stand apart in the source; their conditions may differ.
# Test system: Alzheimer patients with mild cognitive impairment
# Assay: Clinical trial on Alzheimer's patients with mild cognitive impairment
# Assay type: in vivo, human
# Settings: 10 mg orally once a day
# Description: A randomized clinical trial of NA-831 (also known as cyclic Prolyl Glycine) was performed on Alzheimer patients with mild cognitive impairment of vascular origin. The drug NA-831 was administered orally with a one capsule of 10 mg once a day over a period of 12 weeks. There were 32 Alzheimer patients participated in the study.
# • Is male or female, at 55-85 years of age (inclusive) at screening. • Self-reported memory complaint, corroborated by spouse or companion as appropriate. • Wechsler Memory Scale III (WMS-III) age-adjusted Logical Memory II score ≤5. • Mini-Mental State Exam (MMSE)≥24. • Center for Epidemiologic Studies-Depression (CES-D) score <27. • Normal thyroid function, defined as TSH, T3 and T4 within normal limits. • Agree not to consume alcoholic beverages within 8 hours of each study visit. • Willing and able to sign informed consent and complete the CTB and all other tests and procedures as listed in the protocol. • Female subjects must be surgically sterile or post-menopausal for at least 2 years. If <2 years post-menopausal, then a follicle stimulating hormone (FSH) ≥40 mIU/mL must be obtained. […] Assessment • 1) A scale assessing the severity of symptoms based on the Unified Assessment of Clinical-Pharmacological Actions of Psychotropic Agents in Patients with Organic Disorders, which provides objective quantitative data on the therapeutic dynamics of psychopathological symptomatology and the characteristics of the psychotropic actions of agents. • 2) The Mini Mental State Examination (MMSE), which consists of a battery of neuropsychological tests evaluating cognitive functions in points: attention, memory, gnosis, speech, praxis, and counting. • 3) The Brief Cognitive Rating Scale (BCRS), which provides assessment of the severities of the individual components of cognitive impairments. • 4) The Cognitive Capacity Screening Examination (CCSE), which consists of a battery of tests assessing cognitive functions: orientation, memory, counting, and the abilities to infer and to group objects. • 5) The Clinical Global Impression scale, which provides quantitative assessments of the therapeutic efficacies of agents, along with tolerance and safety, using investigations of measures of disease severity, the level of “overall improvement,” the therapeutic effect, and the presence and severity of side effects during treatment. • 6) Laboratory analyses consisting of general blood and urine tests, including biochemical investigations (AST, ALT). • 7) ECG traces. Results
# The mental state of patients with mild cognitive impairment, such as but not limited to through vascular origin was defined by the assessment including the Mini Mental State Examination (MMSE), the Brief Cognitive Rating Scale (BCRS), the Cognitive Capacity Screening Examination (CCSE).
# W is Wilcoxon signed-rank test, which is the nonparametric test equivalent to the dependent t-test. It is used to compare two sets of scores that come from the same participants. This can occur when we wish to investigate any change in scores from one time point to another, or when individuals are subjected to more than one condition.
# Clinicians use used a Wilcoxon signed-rank test to understand whether there was a difference in the patient conditions in term of fatigue before and after a period the time with the drug treatment.
# Analysis of the therapeutic efficacies of NA-831 were performed in all patients in the trial using the assessment methods including: the Mini Mental State Examination (MMSE), the Brief Cognitive Rating Scale (BCRS), and the Cognitive Capacity Screening Examination (CCSE).
structure (smiles),measurement,setting,value
"O=C1NCC(=O)N2CCC[C@@H]12 [cPG, cyclic Prolyl Glycine]",long-term memory,12 weeks,improves
same,orientation,12 weeks,improves
same,patients with little improvement,12 weeks,7.5%
same,patients with marked improvement,12 weeks,92.5%
same,short-term memory,12 weeks,improves
same,ability to concentrate and count (Brief Cognitive Rating Scale),"day 42 to day 84, p value of less than 0.01",improve
same,functions significantly improved with p<0.01,listed as NA-831,Reduce fatigue; also recorded: Reduce anxiety; also recorded: Reduce irritability; also recorded: Improve lability; also recorded: Reduce disturbance from waking up at night; also recorded: Reduce daytime drowsiness; also recorded: Improve duration of nocturnal sleep
same,"Affective Lability, W (Wilcoxon signed-rank test)",Baseline vs day 7,23
same,"Anxiety, W (Wilcoxon signed-rank test)",Baseline vs day 7,22
same,"Apathy indifference, W (Wilcoxon signed-rank test)",Baseline vs day 7,19
same,"Daytime drowsiness, W (Wilcoxon signed-rank test)",Baseline vs day 7,19
same,"Decreased mood, W (Wilcoxon signed-rank test)",Baseline vs day 7,3
same,"Disturbance to waking, W (Wilcoxon signed-rank test)",Baseline vs day 7,21
same,"Headache, W (Wilcoxon signed-rank test)",Baseline vs day 7,28
same,"Hyperesthesia, W (Wilcoxon signed-rank test)",Baseline vs day 7,11
same,"Impairments to the depth and duration of nocturnal sleep, W (Wilcoxon signed-rank test)",Baseline vs day 7,37
same,"Increased fatigue, W (Wilcoxon signed-rank test)",Baseline vs day 7,17
same,"Increased irritability, W (Wilcoxon signed-rank test)",Baseline vs day 7,38
same,"Orthostatic Impairment, W (Wilcoxon signed-rank test)",Baseline vs day 7,18
same,"Sleeping Disturbance, W (Wilcoxon signed-rank test)",Baseline vs day 7,37
same,"Sweating, W (Wilcoxon signed-rank test)",Baseline vs day 7,12
same,"Tachycardia, W (Wilcoxon signed-rank test)",Baseline vs day 7,29
same,"Affective Lability, W (Wilcoxon signed-rank test)",Baseline vs day 14,58
same,"Anxiety, W (Wilcoxon signed-rank test)",Baseline vs day 14,22
same,"Apathy indifference, W (Wilcoxon signed-rank test)",Baseline vs day 14,41
same,"Daytime drowsiness, W (Wilcoxon signed-rank test)",Baseline vs day 14,45
same,"Decreased mood, W (Wilcoxon signed-rank test)",Baseline vs day 14,12
same,"Disturbance to waking, W (Wilcoxon signed-rank test)",Baseline vs day 14,29
same,"Headache, W (Wilcoxon signed-rank test)",Baseline vs day 14,49
same,"Hyperesthesia, W (Wilcoxon signed-rank test)",Baseline vs day 14,21
same,"Impairments to the depth and duration of nocturnal sleep, W (Wilcoxon signed-rank test)",Baseline vs day 14,57
same,"Increased fatigue, W (Wilcoxon signed-rank test)",Baseline vs day 14,95
same,"Increased irritability, W (Wilcoxon signed-rank test)",Baseline vs day 14,47
same,"Orthostatic Impairment, W (Wilcoxon signed-rank test)",Baseline vs day 14,37
same,"Sleeping Disturbance, W (Wilcoxon signed-rank test)",Baseline vs day 14,47
same,"Sweating, W (Wilcoxon signed-rank test)",Baseline vs day 14,23
same,"Tachycardia, W (Wilcoxon signed-rank test)",Baseline vs day 14,28
same,"Affective Lability, W (Wilcoxon signed-rank test)",Baseline vs day 21,69
same,"Anxiety, W (Wilcoxon signed-rank test)",Baseline vs day 21,46
same,"Apathy indifference, W (Wilcoxon signed-rank test)",Baseline vs day 21,57
same,"Daytime drowsiness, W (Wilcoxon signed-rank test)",Baseline vs day 21,52
same,"Decreased mood, W (Wilcoxon signed-rank test)",Baseline vs day 21,22
same,"Disturbance to waking, W (Wilcoxon signed-rank test)",Baseline vs day 21,41
same,"Headache, W (Wilcoxon signed-rank test)",Baseline vs day 21,98
same,"Hyperesthesia, W (Wilcoxon signed-rank test)",Baseline vs day 21,33
same,"Impairments to the depth and duration of nocturnal sleep, W (Wilcoxon signed-rank test)",Baseline vs day 21,91
same,"Increased fatigue, W (Wilcoxon signed-rank test)",Baseline vs day 21,97
same,"Increased irritability, W (Wilcoxon signed-rank test)",Baseline vs day 21,68
same,"Orthostatic Impairment, W (Wilcoxon signed-rank test)",Baseline vs day 21,58
same,"Sleeping Disturbance, W (Wilcoxon signed-rank test)",Baseline vs day 21,70
same,"Sweating, W (Wilcoxon signed-rank test)",Baseline vs day 21,37
same,"Tachycardia, W (Wilcoxon signed-rank test)",Baseline vs day 21,35
same,"Affective Lability, W (Wilcoxon signed-rank test)",Baseline vs day 28,118
same,"Anxiety, W (Wilcoxon signed-rank test)",Baseline vs day 28,70
same,"Apathy indifference, W (Wilcoxon signed-rank test)",Baseline vs day 28,59
same,"Daytime drowsiness, W (Wilcoxon signed-rank test)",Baseline vs day 28,67
same,"Decreased mood, W (Wilcoxon signed-rank test)",Baseline vs day 28,23
same,"Disturbance to waking, W (Wilcoxon signed-rank test)",Baseline vs day 28,47
same,"Headache, W (Wilcoxon signed-rank test)",Baseline vs day 28,101
same,"Hyperesthesia, W (Wilcoxon signed-rank test)",Baseline vs day 28,67
same,"Impairments to the depth and duration of nocturnal sleep, W (Wilcoxon signed-rank test)",Baseline vs day 28,93
same,"Increased fatigue, W (Wilcoxon signed-rank test)",Baseline vs day 28,137
same,"Increased irritability, W (Wilcoxon signed-rank test)",Baseline vs day 28,93
same,"Orthostatic Impairment, W (Wilcoxon signed-rank test)",Baseline vs day 28,78
same,"Sleeping Disturbance, W (Wilcoxon signed-rank test)",Baseline vs day 28,70
same,"Sweating, W (Wilcoxon signed-rank test)",Baseline vs day 28,66
same,"Tachycardia, W (Wilcoxon signed-rank test)",Baseline vs day 28,45
same,"Affective Lability, W (Wilcoxon signed-rank test)",Baseline vs day 42,139
same,"Anxiety, W (Wilcoxon signed-rank test)",Baseline vs day 42,107
same,"Apathy indifference, W (Wilcoxon signed-rank test)",Baseline vs day 42,61
same,"Daytime drowsiness, W (Wilcoxon signed-rank test)",Baseline vs day 42,76
same,"Decreased mood, W (Wilcoxon signed-rank test)",Baseline vs day 42,23
same,"Disturbance to waking, W (Wilcoxon signed-rank test)",Baseline vs day 42,69
same,"Headache, W (Wilcoxon signed-rank test)",Baseline vs day 42,120
same,"Hyperesthesia, W (Wilcoxon signed-rank test)",Baseline vs day 42,69
same,"Impairments to the depth and duration of nocturnal sleep, W (Wilcoxon signed-rank test)",Baseline vs day 42,104
same,"Increased fatigue, W (Wilcoxon signed-rank test)",Baseline vs day 42,155
same,"Increased irritability, W (Wilcoxon signed-rank test)",Baseline vs day 42,109
same,"Orthostatic Impairment, W (Wilcoxon signed-rank test)",Baseline vs day 42,67
same,"Sleeping Disturbance, W (Wilcoxon signed-rank test)",Baseline vs day 42,82
same,"Sweating, W (Wilcoxon signed-rank test)",Baseline vs day 42,67
same,"Tachycardia, W (Wilcoxon signed-rank test)",Baseline vs day 42,53
same,"Affective Lability, W (Wilcoxon signed-rank test)",Baseline vs day 56,140
same,"Anxiety, W (Wilcoxon signed-rank test)",Baseline vs day 56,110
same,"Apathy indifference, W (Wilcoxon signed-rank test)",Baseline vs day 56,65
same,"Daytime drowsiness, W (Wilcoxon signed-rank test)",Baseline vs day 56,109
same,"Decreased mood, W (Wilcoxon signed-rank test)",Baseline vs day 56,23
same,"Disturbance to waking, W (Wilcoxon signed-rank test)",Baseline vs day 56,92
same,"Headache, W (Wilcoxon signed-rank test)",Baseline vs day 56,121
same,"Hyperesthesia, W (Wilcoxon signed-rank test)",Baseline vs day 56,78
same,"Impairments to the depth and duration of nocturnal sleep, W (Wilcoxon signed-rank test)",Baseline vs day 56,113
same,"Increased fatigue, W (Wilcoxon signed-rank test)",Baseline vs day 56,159
same,"Increased irritability, W (Wilcoxon signed-rank test)",Baseline vs day 56,110
same,"Orthostatic Impairment, W (Wilcoxon signed-rank test)",Baseline vs day 56,78
same,"Sleeping Disturbance, W (Wilcoxon signed-rank test)",Baseline vs day 56,82
same,"Sweating, W (Wilcoxon signed-rank test)",Baseline vs day 56,67
same,"Tachycardia, W (Wilcoxon signed-rank test)",Baseline vs day 56,67
same,"Affective Lability, W (Wilcoxon signed-rank test)",Baseline vs day 70,142
same,"Anxiety, W (Wilcoxon signed-rank test)",Baseline vs day 70,115
same,"Apathy indifference, W (Wilcoxon signed-rank test)",Baseline vs day 70,67
same,"Daytime drowsiness, W (Wilcoxon signed-rank test)",Baseline vs day 70,117
same,"Decreased mood, W (Wilcoxon signed-rank test)",Baseline vs day 70,24
same,"Disturbance to waking, W (Wilcoxon signed-rank test)",Baseline vs day 70,95
same,"Headache, W (Wilcoxon signed-rank test)",Baseline vs day 70,129
same,"Hyperesthesia, W (Wilcoxon signed-rank test)",Baseline vs day 70,83
same,"Impairments to the depth and duration of nocturnal sleep, W (Wilcoxon signed-rank test)",Baseline vs day 70,118
same,"Increased fatigue, W (Wilcoxon signed-rank test)",Baseline vs day 70,162
same,"Increased irritability, W (Wilcoxon signed-rank test)",Baseline vs day 70,117
same,"Orthostatic Impairment, W (Wilcoxon signed-rank test)",Baseline vs day 70,81
same,"Sleeping Disturbance, W (Wilcoxon signed-rank test)",Baseline vs day 70,82
same,"Sweating, W (Wilcoxon signed-rank test)",Baseline vs day 70,69
same,"Tachycardia, W (Wilcoxon signed-rank test)",Baseline vs day 70,69
same,"MMSE, average","day 84, average 23.5 on day 1",29.75
